Results: ChEMBL document CHEMBL4613290, “Discovery of Reversible Inhibitors of KDM1A Efficacious in Acute Myeloid Leukemia Models” (ACS Med Chem Lett, 2020)
pIC50: −log10 of the molar value.

Columns and labels:
[1] = biological target: Lysine-specific histone demethylase 1A (Homo sapiens, UniProt O60341); assay: Inhibition of recombinant human LSD1 expressed in Escherichia coli using biotinylated H3K4me as substrate by TR-FRET assay
THP-1 [2] = assay: Anticlonogenic activity against human THP1 cells assessed as inhibition of colony formation at 500 nM measured after 13 days relative to control; assay type: functional; conditions: THP-1, 312 h
THP-1 [3] = assay: Anticlonogenic activity against human THP1 cells assessed as inhibition of colony formation at 50 nM measured after 13 days relative to control; assay type: functional; conditions: THP-1, 312 h
[4] = Antitumor activity against human MLL-AF9 xenografted in sub-lethal irradiated C57BL6JCRL mouse assessed as increase in mouse survival at 15 mg/kg, po administered 5 days per week for 2 weeks starting after 10 days post-injection by Kaplan-Meier plot analysis relative to control; assay type: functional
[5] = Toxicity in non-irradiated mouse injected with APL blast cells assessed as effect on body weight at 15 and 30 mg/kg, po administered 5 days per week for 2 weeks starting after 10 days post-injection; assay type: organism-based; conditions: in vivo
[6] = Antitumor activity against human MLL-AF9 xenografted in sub-lethal irradiated C57BL6JCRL mouse assessed as increase in mouse survival at 30 mg/kg, po administered 5 days per week for 2 weeks starting after 10 days post-injection by Kaplan-Meier plot analysis relative to control; assay type: functional
[7] = Oral bioavailability in CD-1 mouse at 15 mg/kg administered as single dose; assay type: ADME, organism-based; conditions: in vivo
[8] = Antitumor activity against mouse APL blast injected in non-irradiated mouse assessed as increase in mouse survival at 15 mg/kg, po administered 5 days per week for 2 weeks starting after 10 days post-injection by Kaplan-Meier plot analysis relative to control; assay type: functional
[9] = Toxicity in non-irradiated mouse injected with APL blast cells assessed as effect on body weight at 60 mg/kg, po administered 5 days per week for 2 weeks starting after 10 days post-injection measured after 1st week of treatment; assay type: organism-based; conditions: in vivo
[10] = Volume of distribution at steady state in CD-1 mouse at 5 mg/kg, iv administered as single dose; assay type: ADME, organism-based; conditions: in vivo, read-out: Vdss
Mus musculus = assay: Antitumor activity against mouse APL blast injected in non-irradiated po dosed mouse assessed as increase in mouse survival administered 5 days per week for 2 weeks starting after 10 days post-injection by Kaplan-Meier plot analysis relative to control; assay type: functional, organism-based
[11] = Clearance in CD-1 mouse at 5 mg/kg, iv administered as single dose; assay type: ADME, organism-based; conditions: in vivo
[12] = AUC (0 to infinity) in CD-1 mouse at 5 mg/kg, iv administered as single dose; assay type: ADME, organism-based; parameters: dose 5 mg/kg, time infinity, route intravenous; conditions: in vivo
[13] = Cmax in CD-1 mouse at 15 mg/kg, po administered as single dose; assay type: ADME, organism-based; parameters: dose 15 mg/kg, route oral; conditions: in vivo
[14] = Toxicity in sub-lethal irradiated C57BL6JCRL mouse xenografted with human MLL-AF9 cells assessed as effect on body weight at 15 to 30 mg/kg, po administered 5 days per week for 2 weeks starting after 10 days post-injection; assay type: organism-based; conditions: in vivo
[15] = Half life in CD-1 mouse at 5 mg/kg, iv administered as single dose; assay type: ADME, organism-based; conditions: in vivo
[16] = Tmax in CD-1 mouse at 15 mg/kg, po administered as single dose; assay type: ADME, organism-based; conditions: in vivo
[17] = Cmax in CD-1 mouse at 5 mg/kg, iv administered as single dose; assay type: ADME, organism-based; parameters: dose 5 mg/kg, route intravenous; conditions: in vivo
[18] = Antitumor activity against mouse APL blast injected in non-irradiated mouse assessed as increase in mouse survival at 30 mg/kg, po administered 5 days per week for 2 weeks starting after 10 days post-injection by Kaplan-Meier plot analysis relative to control; assay type: functional
[19] = AUC (0 to infinity) in CD-1 mouse at 15 mg/kg, po administered as single dose; assay type: ADME, organism-based; parameters: dose 15 mg/kg, time infinity, route oral; conditions: in vivo

Compound	pIC50 [1]	inhibition at 0.5 µM (THP-1 [2]) [%]	inhibition at 0.05 µM (THP-1 [3]) [%]	further results
Cn1c(C(=O)Cc2ccccc2)cc2sccc21	< 4.00			
CCc1cn(CCCc2ccc(OC3CCNCC3)cc2)c(-c2cc3sccc3n2C)n1		61.4	33.3	
CCCc1cn(CCCc2ccc(OC3CCCNCC3)cc2)c(-c2cc3sccc3n2C)n1 (stereo not given)		64.2	46.6	
Cn1c(-c2nc(C3CCC3)cn2CCCc2ccc(OC3CCCNCC3)cc2)cc2sccc21 (stereo not given)		74.2	40.9	
Cn1c(-c2nc(C3CCC3)cn2CCCc2ccc(OC3CCNCC3)cc2)cc2sccc21		72.3	38.8	Activity [4]: 29%; Activity [5]: Non-Toxic; Activity [6]: 70%; bioavailability [7]: 17%; Activity [8]: 20%; Activity [9]: Toxic; Vd [10]: 10.2 L/kg; Activity (Mus musculus): Dose-dependent effect; clearance [11]: 37.5 mL/min/kg; AUC(0-inf) [12]: 4.2 µM·h; Cmax [13]: 320 nM; Activity [14]: Non-Toxic; half-life [15]: 360 min; Tmax [16]: 25 min; Cmax [17]: 2540 nM; Activity [18]: 55%; AUC(0-inf) [19]: 2.03 µM·h
Cn1c(-c2nc(C3CCC3)cn2CCOc2ccc(OC3CCNCC3)cc2)cc2sccc21		73.3	33	
CCc1cn(CCOc2ccc(OC3CCNCC3)cc2)c(-c2cc3sccc3n2C)n1		72.3	27.6	

Further lines, with some results ahead:

pIC50 [1]	Compound	inhibition at 0.5 µM (THP-1 [2]) [%]	inhibition at 0.05 µM (THP-1 [3]) [%]	further results
< 4.00	Cn1c(-c2nc3ccccc3[nH]2)cc2sccc21			
< 4.00	Cn1c(NC(=O)c2ccccc2)cc2sccc21			
< 4.00	Cn1c(-c2nnc(-c3ccccc3)o2)cc2sccc21			
< 4.00	Cn1c(-c2ncc(-c3ccccc3)o2)cc2sccc21			
< 4.00	Cn1c(-c2nnc(-c3ccccc3)[nH]2)cc2sccc21			
